Laboratory results from patent publication US6521665B1, “Method of treating insulin resistance” (priority 2001, dated 2003).
Read-outs that look alike come from different tables or passages of the source.

Tests used:
healthy rats = settings: no changes during thirty days of the experiment
Method: (§1) Assays. Plasma free fatty acids levels were determined by enzymatic method with a commercially available kit (Waho Chemicals Gmbh, Neuss, Germany) with Multistat 3 centrifugal analyzer (Instrumentation Laboratories, Lexington, USA).
(§2) Serum glucose concentrations were determined by the glucose oxidase method with a kit (Lachema, Slov.) with glucose analyzer (Beckman, Fullerton, Calif., USA).
(§3) Plasma insulin concentrations were determined by a double-antibody radioimmunoassay kit (Kabi Pharmacia Diagnostics, Uppsala, Sweden) using a rat insulin standard (Novo Research Institute, Bagsvard, Denmark).

[1] = tested on: streptozotocin-induced rats; settings: for Mean plasma FFA / Mean plasma insulin / Mean serum glucose: experimental rats, 5 mg per kg s.c. daily for 7 days
Method: Animals. Male albino Wistar rats 8-10 weeks of age 200-250 grams of body weight were used. The rats were housed at the temperature of 18±21° C. on a 12 hour light-dark cycle. Rats were fed on a stock laboratory diet (59% carbohydrates; 17% protein; 3% fat; 21% minerals, water, cellulose) and allowed water ad libitum. The streptozotocin (Sigma, St. Louis, Mo., USA) solved in citrate buffer (0.05M, pH 5.5) was injected into tail vein of male albino Wistar rats in a dose of 35 mg per kg of animal body weight to induce decompensated insulin resistance. The rats with levels of glucose more than 14.0 mmol/l were used in the experiment one week after the streptozotocin injection.
as §1, §2, §3
Procedure. Streptozotocin-induced rats were assigned to two groups: a control rats (six rats) and experimental rats (fifteen rats). Experimental rats received daily injection (subcutaneously, 0.5 ml at 09.00 h) of water solution of succinic acid disodium salt hexahydrate in a dose of 5 mg per kg of body weight for period of 7 days.
Plasma free fatty acid levels (FFA), plasma Insulin levels and serum glucose levels were measured in rats by tail clipping method at zero day (before treatment), at third, fifth and seventh days (treatment period), and at tenth, fifteen, twentieth, twenty fifth and thirtieth days (after-treatment period).

pancreatic islets = settings: MacDonald, Fahien, Diabetes 37(7): 997-999 (1988); cited from earlier work
[2] = tested on: non-insulin dependent diabetic humans; settings: for Mean plasma FFA / Mean plasma High Density Lipoprotein cholesterol (HDL) / Mean plasma Low Density Lipoprotein cholesterol (LDL) / Mean plasma Triglycerides / Mean plasma insulin / Mean serum glucose: NIDDM humans, orally 200 mg to 400 mg per day for 3 to 7 days
Text: Patients. Twelve non-insulin dependent diabetic humans were studied. Non-insulin Dependent Diabetes Mellitus (NIDDM) was diagnosed in the humans according to the World Health Organisation criteria and had been presented for minimum 5 years. The NIDDM humans were metabolically stable and had glucose levels more than 12.8 mmol/l. Six patients were taking oral sulphonylurea hypoglicemic drug glibenclamide (rec. INN). None of the humans were undergoing hypolipidemic therapy. The humans had no additive metabolic disorders.
Assays. Assays were used as described in the example 1 of the invention. Plasma insulin concentrations were determined by a double-antibody radioimmunoassay kit (Kabi Pharmacia Diagnostics, Uppsala, Sweden).
Procedure. Pharmaceutical grade succinic acid in a unit dosage form of 100 mg per gelatin capsule was used. All patients received succinic acid orally in daily dose of 200 mg to 400 mg per day for period of 3 to 7 days.
Plasma free fatty acid levels, insulin levels and serum glucose levels, plasma high density lipoprotein cholesterol (HDL-cholesterol), low density lipoprotein cholesterol (LDL-cholesterol) and triglycerides were measured in humans at zero day (before treatment ), at third and fifth days (treatment period), and at tenth, fifteen twentieth, twenty fifth thirtieth and fortieth days (after-treatment period).

[3] = day 10 (after-treatment period)
[4] = day 15 (after-treatment period)
[5] = day 20 (after-treatment period)
[6] = day 25 (after-treatment period)
[7] = day 30 (after-treatment period)
[8] = day 10 (after treatment period)
[9] = day 15 (after treatment period)
[10] = day 20 (after treatment period)
[11] = day 25 (after treatment period)
[12] = day 30 (after treatment period)
[13] = day 40 (after treatment period)
[14] = day 40 (after-treatment period)

## O.O.O.O.O.O.O=C([O-])CCC(=O)[O-].[Na+].[Na+] [succinic acid disodium salt hexahydrate]
Healthy rats
  plasma free fatty acid levels: 0.08 ± 0.03 mmol/L
  plasma insulin levels: 3.4 ± 0.6 ng/mL
  serum glucose: 4.8 ± 0.4 mmol/L
[1]; day 0 (before treatment)
  Mean plasma FFA: 0.35 ± 0.03 mmol/L
  Mean plasma insulin: 11.0 ± 0.7 ng/mL
  Mean serum glucose: 15.7 ± 2.6 mmol/L
[1]; day 3 (treatment period)
  Mean plasma FFA: 0.32 ± 0.04 mmol/L
  Mean plasma insulin: 10.2 ± 1.1 ng/mL
  Mean serum glucose: 15.8 ± 3.1 mmol/L
[1]; day 5 (treatment period)
  Mean plasma FFA: 0.25 ± 0.06 mmol/L
  Mean plasma insulin: 7.4 ± 0.8 ng/mL
  Mean serum glucose: 13.0 ± 2.4 mmol/L
[1]; day 7 (treatment period)
  Mean plasma FFA: 0.18 ± 0.05 mmol/L
  Mean plasma insulin: 4.2 ± 0.7 ng/mL
  Mean serum glucose: 10.0 ± 1.2 mmol/L
[1]; [3]
  Mean plasma FFA: 0.20 ± 0.06 mmol/L
  Mean plasma insulin: 3.1 ± 0.8 ng/mL
  Mean serum glucose: 10.1 ± 2.0 mmol/L
[1]; [4]
  Mean plasma FFA: 0.15 ± 0.03 mmol/L
  Mean plasma insulin: 2.4 ± 0.4 ng/mL
  Mean serum glucose: 8.1 ± 1.1 mmol/L
[1]; [5]
  Mean plasma FFA: 0.10 ± 0.05 mmol/L
  Mean plasma insulin: 2.1 ± 0.4 ng/mL
  Mean serum glucose: 6.6 ± 0.8 mmol/L
[1]; [6]
  Mean plasma FFA: 0.11 ± 0.04 mmol/L
  Mean plasma insulin: 2.0 ± 0.3 ng/mL
  Mean serum glucose: 5.7 ± 0.5 mmol/L
[1]; [7]
  Mean plasma FFA: 0.13 ± 0.04 mmol/L
  Mean plasma insulin: 2.1 ± 0.3 ng/mL
  Mean serum glucose: 5.4 ± 0.7 mmol/L
[1]; insulin resistant rats in comparison with control insulin resistant rats, maximal efficacy in the after-treatment period
  insulin sensitivity: significant improving in insulin sensitivity

## O=C(O)CCC(=O)O [succinic acid]
Pancreatic islets
  insulin release: did not stimulate insulin release
[2]; day 0 (before treatment)
  Mean plasma FFA: 0.240 ± 0.044 mmol/L
  Mean plasma High Density Lipoprotein cholesterol (HDL): 0.6 ± 0.4 mmol/L
  Mean plasma Low Density Lipoprotein cholesterol (LDL): 4.8 ± 0.3 mmol/L
  Mean plasma Triglycerides: 2.7 ± 0.3 mmol/L
  Mean plasma insulin: 140 ± 23 pmol/L
  Mean serum glucose: 14.8 ± 1.4 mmol/L
[2]; day 3 (treatment period)
  Mean plasma FFA: 0.250 ± 0.071 mmol/L
  Mean plasma High Density Lipoprotein cholesterol (HDL): 0.7 ± 0.2 mmol/L
  Mean plasma Low Density Lipoprotein cholesterol (LDL): 4.9 ± 0.4 mmol/L
  Mean plasma Triglycerides: 2.8 ± 0.6 mmol/L
  Mean serum glucose: 14.5 ± 1.4 mmol/L
[2]; day 5 (treatment period)
  Mean plasma FFA: 0.195 ± 0.064 mmol/L
  Mean plasma High Density Lipoprotein cholesterol (HDL): 0.8 ± 0.2 mmol/L
  Mean plasma Low Density Lipoprotein cholesterol (LDL): 4.7 ± 0.2 mmol/L
  Mean plasma Triglycerides: 2.7 ± 0.3 mmol/L
  Mean serum glucose: 14.9 ± 1.5 mmol/L
[2]; [8]
  Mean plasma High Density Lipoprotein cholesterol (HDL): 1.2 ± 0.4 mmol/L
  Mean plasma Low Density Lipoprotein cholesterol (LDL): 4.3 ± 0.6 mmol/L
  Mean plasma Triglycerides: 2.5 ± 0.3 mmol/L
[2]; [3]
  Mean plasma FFA: 0.184 ± 0.035 mmol/L
  Mean plasma insulin: 134 ± 27 pmol/L
  Mean serum glucose: 13.0 ± 2.0 mmol/L
[2]; [9]
  Mean plasma High Density Lipoprotein cholesterol (HDL): 1.2 ± 0.3 mmol/L
  Mean plasma Low Density Lipoprotein cholesterol (LDL): 4.0 ± 0.3 mmol/L
  Mean plasma Triglycerides: 2.4 ± 0.4 mmol/L
[2]; [4]
  Mean plasma FFA: 0.157 ± 0.032 mmol/L
  Mean serum glucose: 13.1 ± 0.8 mmol/L
[2]; [10]
  Mean plasma High Density Lipoprotein cholesterol (HDL): 1.2 ± 0.4 mmol/L
  Mean plasma Low Density Lipoprotein cholesterol (LDL): 3.5 ± 0.4 mmol/L
  Mean plasma Triglycerides: 1.8 ± 0.4 mmol/L
[2]; [5]
  Mean plasma FFA: 0.161 ± 0.034 mmol/L
  Mean plasma insulin: 124 ± 17 pmol/L
  Mean serum glucose: 11.0 ± 1.0 mmol/L
[2]; [11]
  Mean plasma High Density Lipoprotein cholesterol (HDL): 1.3 ± 0.2 mmol/L
  Mean plasma Low Density Lipoprotein cholesterol (LDL): 3.4 ± 0.3 mmol/L
  Mean plasma Triglycerides: 1.3 ± 0.2 mmol/L
[2]; [6]
  Mean plasma FFA: 0.113 ± 0.046 mmol/L
  Mean serum glucose: 9.4 ± 1.3 mmol/L
[2]; [12]
  Mean plasma High Density Lipoprotein cholesterol (HDL): 1.5 ± 0.2 mmol/L
  Mean plasma Low Density Lipoprotein cholesterol (LDL): 3.4 ± 0.2 mmol/L
  Mean plasma Triglycerides: 1.1 ± 0.1 mmol/L
[2]; [7]
  Mean plasma FFA: 0.086 ± 0.035 mmol/L
  Mean plasma insulin: 118 ± 21 pmol/L
  Mean serum glucose: 7.1 ± 0.6 mmol/L
[2]; [13]
  Mean plasma High Density Lipoprotein cholesterol (HDL): 1.3 ± 0.2 mmol/L
  Mean plasma Low Density Lipoprotein cholesterol (LDL): 3.5 ± 0.4 mmol/L
  Mean plasma Triglycerides: 1.4 ± 0.2 mmol/L
[2]; [14]
  Mean plasma FFA: 0.100 ± 0.022 mmol/L
  Mean plasma insulin: 112 ± 14 pmol/L
  Mean serum glucose: 5.8 ± 1.1 mmol/L
[2]; non-insulin dependent diabetic humans, especially in the after-treatment period
  change of plasma triglycerides, LDL cholesterol and HDL cholesterol: reducing plasma triglycerides and low density lipoprotein cholesterol, and increasing plasma high density lipoprotein cholesterol
[2]; non-insulin dependent diabetic humans, maximal efficacy in the after-treatment period
  insulin sensitivity: improving in insulin sensitivity
